The structures appear in SMILES notation. Square brackets hold non-standard residues; d marks the D form. Peptide text beside a SMILES is read from it. * marks the point of attachment. 4Abz = Nc1ccc(C(=O)O)cc1; NHBn = c1ccc(CN*)cc1

The assay addresses RAC-alpha serine/threonine-protein kinase (Homo sapiens, UniProt P31749). The assay can be described thus: AKT IMAP Fluorescence Polarization Assay. The note with it: pH 7.2; 23 °C. An excerpt: A bead-based FP assay methodology, termed IMAP, has been developed for the serine/threonine kinase, AKT that allows for direct measurement of product formation. The assay design utilizes a fluoresceinated peptide substrate that, when phosphorylated by the kinase, binds to nanoparticles derivatized with trivalent metal cations through a metal-phospholigand interaction. The result of this bound fluoresceinated phosphorylated product is an increase in polarization signal caused by a decrease in the molecular mobility of the bound product. Reported values are an average of three independent binding curves utilizing an IMAP Akt Assay Kit (Molecular Devices). Reactions were conducted in wells with fluoresceinated peptide, ATP, and Akt1, and inhibitor in reaction buffer. The reactions were equilibrated for 1 h at room temperature then data points were collected and analyzed.

RAC-alpha serine/threonine-protein kinase, sequence (P31749 whole entry): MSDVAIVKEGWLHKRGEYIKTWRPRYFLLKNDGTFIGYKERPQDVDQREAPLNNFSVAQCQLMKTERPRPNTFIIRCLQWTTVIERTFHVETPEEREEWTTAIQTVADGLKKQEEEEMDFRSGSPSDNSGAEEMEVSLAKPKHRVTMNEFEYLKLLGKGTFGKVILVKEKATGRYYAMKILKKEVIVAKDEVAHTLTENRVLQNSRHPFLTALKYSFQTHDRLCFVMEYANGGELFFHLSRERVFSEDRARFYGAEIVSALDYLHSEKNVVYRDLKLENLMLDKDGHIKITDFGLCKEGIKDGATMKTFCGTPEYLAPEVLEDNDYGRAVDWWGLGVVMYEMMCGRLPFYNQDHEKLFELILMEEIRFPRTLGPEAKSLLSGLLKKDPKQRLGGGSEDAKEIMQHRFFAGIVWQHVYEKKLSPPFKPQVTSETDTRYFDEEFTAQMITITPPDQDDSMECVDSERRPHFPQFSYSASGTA

The compound `CC(=O)NCC(=O)NC(CCCN=C(N)N)C(=O)N1CCCC1C(=O)NC(CCCN=C(N)N)C(=O)Nc1ccc(C(=O)NC(C(=O)NC(Cc2ccccc2)C(=O)NCc2ccccc2)C(C)C)cc1` (configuration not stated) [Peptidomimetic, 2] (Ac-GRPR[4Abz]VF-NHBn; configuration not given here) returned an IC50 of 28 µM.

`CC(=O)NC(CCCN=C(N)N)C(=O)Nc1ccc(C(=O)NC(C(=O)NC(Cc2ccccc2)C(=O)NCc2ccccc2)C(C)C)cc1` (configuration not stated) [Peptidomimetic, 9] (Ac-R[4Abz]VF-NHBn; configuration not given here): the IC50 amounted to 119 µM.

The record behind these values is BindingDB's records for doi:10.1016/j.bmc.2008.09.058 (Yale University, 2009).
